# Results as given in the supplement of paper PMC10307832.
# How the values were obtained:
# Assay in all cases: relative viability (nuclei count vs DMSO), 5 days (fraction); higher = more cells survive
# [1] = system: NCI-H1703
# Outline: (§1)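 Dosing by pin tool came one day after lung cancer cell lines were seeded in 1536-well plates, using either one drug or a fixed anchor-drug dose plus five library-drug doses (not always all listed) in √10 steps. After 5 days, nuclei were counted on 4× images. Relative viability is treated-well nuclei count divided by vehicle-well nuclei count, and values are medians of duplicate plates.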
# [2] = system: HCC-44
# Outline: as §1
# [3] = system: NCI-H1299
# Outline: as §1
# [4] = system: A549
# Outline: as §1
# [5] = system: NCI-H2085
# Outline: as §1
# [6] = system: NCI-H1437
# Outline: as §1
# [7] = system: HCC-366
# Outline: as §1
# [8] = system: LOU-NH91
# Outline: as §1
# [9] = system: IA-LM
# Outline: as §1
# [10] = system: EBC-1
# Outline: as §1
# [11] = system: LXF-289
# Outline: as §1
# [12] = system: Calu-6
# Outline: as §1
# [13] = system: NCI-H3122
# Outline: as §1
smiles,measurement,setting,value
COc1cc2nccc(Oc3ccc(NC(=O)Nc4cc(C)on4)c(Cl)c3)c2cc1OC [Tivozanib] + CC1(C)CCC(c2ccc(Cl)cc2)=C(CN2CCN(c3ccc(C(=O)NS(=O)(=O)c4ccc(N[C@H](CCN5CCOCC5)CSc5ccccc5)c(S(=O)(=O)C(F)(F)F)c4)cc3)CC2)C1 [Navitoclax] (partner 0.5 µM),relative viability,[1]; first compound 0.005 µM,0.369
same,relative viability,[1]; first compound 0.01581 µM,0.244
same,relative viability,[1]; first compound 0.05 µM,0.219
same,relative viability,[1]; first compound 0.1581 µM,0.251
same,relative viability,[1]; first compound 0.5 µM,0.249
same,relative viability,[2]; first compound 0.005 µM,1.01
same,relative viability,[2]; first compound 0.01581 µM,0.986
same,relative viability,[2]; first compound 0.05 µM,1.01
same,relative viability,[2]; first compound 0.1581 µM,0.962
same,relative viability,[2]; first compound 0.5 µM,0.944
same,relative viability,[3]; first compound 0.005 µM,1.03
same,relative viability,[3]; first compound 0.01581 µM,1.07
same,relative viability,[3]; first compound 0.05 µM,1.05
same,relative viability,[3]; first compound 0.1581 µM,1.05
same,relative viability,[3]; first compound 0.5 µM,0.981
same,relative viability,[4]; first compound 0.005 µM,1.22
same,relative viability,[4]; first compound 0.01581 µM,1.32
same,relative viability,[4]; first compound 0.05 µM,1.14
same,relative viability,[4]; first compound 0.1581 µM,1.23
same,relative viability,[4]; first compound 0.5 µM,1.19
same,relative viability,[5]; first compound 0.005 µM,1.07
same,relative viability,[5]; first compound 0.01581 µM,1.1
same,relative viability,[5]; first compound 0.05 µM,1.17
same,relative viability,[5]; first compound 0.1581 µM,1.04
same,relative viability,[5]; first compound 0.5 µM,1.14
same,relative viability,[6]; first compound 0.005 µM,1.06
same,relative viability,[6]; first compound 0.01581 µM,1.12
same,relative viability,[6]; first compound 0.05 µM,1.07
same,relative viability,[6]; first compound 0.1581 µM,1.02
same,relative viability,[6]; first compound 0.5 µM,1.02
same,relative viability,[7]; first compound 0.005 µM,1.05
same,relative viability,[7]; first compound 0.01581 µM,1.05
same,relative viability,[7]; first compound 0.05 µM,0.947
same,relative viability,[7]; first compound 0.1581 µM,1.01
same,relative viability,[7]; first compound 0.5 µM,1.08
same,relative viability,[8]; first compound 0.005 µM,0.641
same,relative viability,[8]; first compound 0.01581 µM,0.715
same,relative viability,[8]; first compound 0.05 µM,0.706
same,relative viability,[8]; first compound 0.1581 µM,0.675
same,relative viability,[8]; first compound 0.5 µM,0.705
same,relative viability,[9]; first compound 0.005 µM,0.728
same,relative viability,[9]; first compound 0.01581 µM,0.899
same,relative viability,[9]; first compound 0.05 µM,0.737
same,relative viability,[9]; first compound 0.1581 µM,0.574
same,relative viability,[9]; first compound 0.5 µM,0.582
same,relative viability,[10]; first compound 0.005 µM,0.359
same,relative viability,[10]; first compound 0.01581 µM,0.437
same,relative viability,[10]; first compound 0.05 µM,0.528
same,relative viability,[10]; first compound 0.1581 µM,0.436
same,relative viability,[10]; first compound 0.5 µM,0.485
same,relative viability,[11]; first compound 0.005 µM,0.916
same,relative viability,[11]; first compound 0.01581 µM,0.942
same,relative viability,[11]; first compound 0.05 µM,0.915
same,relative viability,[11]; first compound 0.1581 µM,1.01
same,relative viability,[11]; first compound 0.5 µM,0.926
same,relative viability,[12]; first compound 0.005 µM,0.739
same,relative viability,[12]; first compound 0.01581 µM,0.896
same,relative viability,[12]; first compound 0.05 µM,0.798
same,relative viability,[12]; first compound 0.1581 µM,0.874
same,relative viability,[12]; first compound 0.5 µM,0.74
same,relative viability,[13]; first compound 0.005 µM,1.03
same,relative viability,[13]; first compound 0.01581 µM,1
same,relative viability,[13]; first compound 0.05 µM,1.07
same,relative viability,[13]; first compound 0.1581 µM,1.03
same,relative viability,[13]; first compound 0.5 µM,1.03
COc1cc2nccc(Oc3ccc(NC(=O)Nc4cc(C)on4)c(Cl)c3)c2cc1OC [Tivozanib] + CS(=O)(=O)CCNCc1ccc(-c2ccc3ncnc(Nc4ccc(OCc5cccc(F)c5)c(Cl)c4)c3c2)o1 [Lapatinib] (partner 2 µM),relative viability,[1]; first compound 0.005 µM,0.44
same,relative viability,[1]; first compound 0.01581 µM,0.255
same,relative viability,[1]; first compound 0.05 µM,0.271
same,relative viability,[1]; first compound 0.1581 µM,0.305
same,relative viability,[1]; first compound 0.5 µM,0.259
same,relative viability,[2]; first compound 0.005 µM,0.95
same,relative viability,[2]; first compound 0.01581 µM,0.991
same,relative viability,[2]; first compound 0.05 µM,1.01
same,relative viability,[2]; first compound 0.1581 µM,0.991
same,relative viability,[2]; first compound 0.5 µM,0.952
same,relative viability,[3]; first compound 0.005 µM,0.921
same,relative viability,[3]; first compound 0.01581 µM,1.03
same,relative viability,[3]; first compound 0.05 µM,0.933
same,relative viability,[3]; first compound 0.1581 µM,0.936
same,relative viability,[3]; first compound 0.5 µM,0.917
same,relative viability,[4]; first compound 0.005 µM,1.09
same,relative viability,[4]; first compound 0.01581 µM,0.987
same,relative viability,[4]; first compound 0.05 µM,0.944
same,relative viability,[4]; first compound 0.1581 µM,1.03
same,relative viability,[4]; first compound 0.5 µM,0.913
same,relative viability,[5]; first compound 0.005 µM,0.66
same,relative viability,[5]; first compound 0.01581 µM,0.769
same,relative viability,[5]; first compound 0.05 µM,0.774
same,relative viability,[5]; first compound 0.1581 µM,0.579
same,relative viability,[5]; first compound 0.5 µM,0.627
same,relative viability,[6]; first compound 0.005 µM,0.771
same,relative viability,[6]; first compound 0.01581 µM,0.8
same,relative viability,[6]; first compound 0.05 µM,0.777
same,relative viability,[6]; first compound 0.1581 µM,0.824
same,relative viability,[6]; first compound 0.5 µM,0.708
same,relative viability,[7]; first compound 0.005 µM,0.991
same,relative viability,[7]; first compound 0.01581 µM,1.08
same,relative viability,[7]; first compound 0.05 µM,1.12
same,relative viability,[7]; first compound 0.1581 µM,1.03
same,relative viability,[7]; first compound 0.5 µM,0.976
same,relative viability,[8]; first compound 0.005 µM,0.704
same,relative viability,[8]; first compound 0.01581 µM,0.772
same,relative viability,[8]; first compound 0.05 µM,0.758
same,relative viability,[8]; first compound 0.1581 µM,0.62
same,relative viability,[8]; first compound 0.5 µM,0.794
same,relative viability,[9]; first compound 0.01581 µM,0.564
same,relative viability,[9]; first compound 0.05 µM,0.771
same,relative viability,[9]; first compound 0.1581 µM,0.582
same,relative viability,[9]; first compound 0.5 µM,0.56
same,relative viability,[10]; first compound 0.005 µM,0.231
same,relative viability,[10]; first compound 0.01581 µM,0.216
same,relative viability,[10]; first compound 0.05 µM,0.172
same,relative viability,[10]; first compound 0.1581 µM,0.209
same,relative viability,[10]; first compound 0.5 µM,0.204
same,relative viability,[11]; first compound 0.005 µM,0.888
same,relative viability,[11]; first compound 0.01581 µM,0.886
same,relative viability,[11]; first compound 0.05 µM,0.902
same,relative viability,[11]; first compound 0.1581 µM,0.946
same,relative viability,[11]; first compound 0.5 µM,0.905
same,relative viability,[12]; first compound 0.005 µM,1.01
same,relative viability,[12]; first compound 0.01581 µM,1.08
same,relative viability,[12]; first compound 0.05 µM,1.07
same,relative viability,[12]; first compound 0.1581 µM,1.13
same,relative viability,[12]; first compound 0.5 µM,1.14
same,relative viability,[13]; first compound 0.005 µM,0.972
same,relative viability,[13]; first compound 0.01581 µM,0.979
same,relative viability,[13]; first compound 0.05 µM,0.989
same,relative viability,[13]; first compound 0.1581 µM,1.16
same,relative viability,[13]; first compound 0.5 µM,1.03
COc1cc2nccc(Oc3ccc(NC(=O)Nc4cc(C)on4)c(Cl)c3)c2cc1OC [Tivozanib] + CS(=O)(=O)N1CCN(Cc2cc3nc(-c4cccc5[nH]ncc45)nc(N4CCOCC4)c3s2)CC1 [Pictilisib] (partner 1 µM),relative viability,[1]; first compound 0.005 µM,0.161
same,relative viability,[1]; first compound 0.01581 µM,0.236
same,relative viability,[1]; first compound 0.05 µM,0.253
same,relative viability,[1]; first compound 0.1581 µM,0.181
same,relative viability,[1]; first compound 0.5 µM,0.213
same,relative viability,[2]; first compound 0.005 µM,0.617
same,relative viability,[2]; first compound 0.01581 µM,0.471
same,relative viability,[2]; first compound 0.05 µM,0.718
same,relative viability,[2]; first compound 0.1581 µM,0.488
same,relative viability,[2]; first compound 0.5 µM,0.654
same,relative viability,[3]; first compound 0.005 µM,0.687
same,relative viability,[3]; first compound 0.01581 µM,0.62
same,relative viability,[3]; first compound 0.05 µM,0.797
same,relative viability,[3]; first compound 0.1581 µM,0.789
same,relative viability,[3]; first compound 0.5 µM,0.615
same,relative viability,[4]; first compound 0.005 µM,0.49
same,relative viability,[4]; first compound 0.01581 µM,0.456
same,relative viability,[4]; first compound 0.05 µM,0.65
same,relative viability,[4]; first compound 0.1581 µM,0.451
same,relative viability,[4]; first compound 0.5 µM,0.571
same,relative viability,[5]; first compound 0.005 µM,0.474
same,relative viability,[5]; first compound 0.01581 µM,0.456
same,relative viability,[5]; first compound 0.05 µM,0.536
same,relative viability,[5]; first compound 0.1581 µM,0.405
same,relative viability,[5]; first compound 0.5 µM,0.408
same,relative viability,[6]; first compound 0.005 µM,0.347
same,relative viability,[6]; first compound 0.01581 µM,0.463
same,relative viability,[6]; first compound 0.05 µM,0.401
same,relative viability,[6]; first compound 0.1581 µM,0.177
same,relative viability,[6]; first compound 0.5 µM,0.52
same,relative viability,[7]; first compound 0.005 µM,0.126
same,relative viability,[7]; first compound 0.01581 µM,0.179
same,relative viability,[7]; first compound 0.05 µM,0.103
same,relative viability,[7]; first compound 0.1581 µM,0.189
same,relative viability,[7]; first compound 0.5 µM,0.175
same,relative viability,[8]; first compound 0.005 µM,0.467
same,relative viability,[8]; first compound 0.01581 µM,0.519
same,relative viability,[8]; first compound 0.05 µM,0.559
same,relative viability,[8]; first compound 0.1581 µM,0.485
same,relative viability,[8]; first compound 0.5 µM,0.526
same,relative viability,[9]; first compound 0.005 µM,0.308
same,relative viability,[9]; first compound 0.01581 µM,0.366
same,relative viability,[9]; first compound 0.05 µM,0.321
same,relative viability,[9]; first compound 0.1581 µM,0.316
same,relative viability,[9]; first compound 0.5 µM,0.574
same,relative viability,[10]; first compound 0.005 µM,0.367
same,relative viability,[10]; first compound 0.01581 µM,0.362
same,relative viability,[10]; first compound 0.05 µM,0.378
same,relative viability,[10]; first compound 0.1581 µM,0.25
same,relative viability,[10]; first compound 0.5 µM,0.401
same,relative viability,[11]; first compound 0.005 µM,0.736
same,relative viability,[11]; first compound 0.01581 µM,0.814
same,relative viability,[11]; first compound 0.05 µM,0.758
same,relative viability,[11]; first compound 0.1581 µM,0.764
same,relative viability,[11]; first compound 0.5 µM,0.807
same,relative viability,[12]; first compound 0.005 µM,0.969
same,relative viability,[12]; first compound 0.01581 µM,0.979
same,relative viability,[12]; first compound 0.05 µM,0.842
same,relative viability,[12]; first compound 0.1581 µM,0.798
same,relative viability,[12]; first compound 0.5 µM,0.823
same,relative viability,[13]; first compound 0.005 µM,0.568
same,relative viability,[13]; first compound 0.01581 µM,0.547
same,relative viability,[13]; first compound 0.05 µM,0.598
same,relative viability,[13]; first compound 0.1581 µM,0.644
same,relative viability,[13]; first compound 0.5 µM,0.789
